Columns and labels:
[1] = DRUGMATRIX: Phosphodiesterase PDE4 enzyme inhibition (substrate: [3H]cAMP + cAMP); conditions: u-937; Not Active = under 50% inhibition at 10 µM
[2] = DRUGMATRIX: ATPase, Na+/K+ enzyme inhibition (substrate: ATP); type: tissue-based, Sus scrofa, Heart; conditions: Not Active = under 50% inhibition at 10 µM
[3] = DRUGMATRIX: Serotonin (5-Hydroxytryptamine) 5-HT3 radioligand binding (ligand: [3H] GR-65630); type: cell membranes, Membrane; conditions: hek293; Not Active = under 50% inhibition at 10 µM
[4] = biological target: Cytochrome P450 2C9 (Homo sapiens, UniProt P11712); conditions: bti-tn-5b1-4; further: in other assays of this panel Not Active means under 50% inhibition at 10 µM
Cytochrome P450 2C9, sequence (P11712 whole entry): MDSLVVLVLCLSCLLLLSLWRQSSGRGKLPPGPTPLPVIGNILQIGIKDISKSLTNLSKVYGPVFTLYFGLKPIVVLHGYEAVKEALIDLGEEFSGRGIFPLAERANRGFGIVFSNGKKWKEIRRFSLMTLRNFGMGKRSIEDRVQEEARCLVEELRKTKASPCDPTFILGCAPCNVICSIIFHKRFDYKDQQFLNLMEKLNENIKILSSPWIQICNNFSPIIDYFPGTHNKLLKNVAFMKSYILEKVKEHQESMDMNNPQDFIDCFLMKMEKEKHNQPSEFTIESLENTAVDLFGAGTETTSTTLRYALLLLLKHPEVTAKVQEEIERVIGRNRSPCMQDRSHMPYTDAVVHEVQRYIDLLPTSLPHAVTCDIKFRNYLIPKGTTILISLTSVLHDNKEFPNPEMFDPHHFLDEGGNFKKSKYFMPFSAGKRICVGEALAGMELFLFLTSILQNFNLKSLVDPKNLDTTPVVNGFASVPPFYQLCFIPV

[5] = DRUGMATRIX: Calcium Channel Type L, Benzothiazepine radioligand binding (ligand: [3H] Diltiazem); type: cell membranes, Rattus norvegicus, Wistar, Brain, Membrane; conditions: Not Active = under 50% inhibition at 10 µM
[6] = biological target: Cytochrome P450 2D6 (Homo sapiens, UniProt P10635); conditions: bti-tn-5b1-4; further: in other assays of this panel Not Active means under 50% inhibition at 10 µM
Cytochrome P450 2D6, sequence (P10635 whole entry): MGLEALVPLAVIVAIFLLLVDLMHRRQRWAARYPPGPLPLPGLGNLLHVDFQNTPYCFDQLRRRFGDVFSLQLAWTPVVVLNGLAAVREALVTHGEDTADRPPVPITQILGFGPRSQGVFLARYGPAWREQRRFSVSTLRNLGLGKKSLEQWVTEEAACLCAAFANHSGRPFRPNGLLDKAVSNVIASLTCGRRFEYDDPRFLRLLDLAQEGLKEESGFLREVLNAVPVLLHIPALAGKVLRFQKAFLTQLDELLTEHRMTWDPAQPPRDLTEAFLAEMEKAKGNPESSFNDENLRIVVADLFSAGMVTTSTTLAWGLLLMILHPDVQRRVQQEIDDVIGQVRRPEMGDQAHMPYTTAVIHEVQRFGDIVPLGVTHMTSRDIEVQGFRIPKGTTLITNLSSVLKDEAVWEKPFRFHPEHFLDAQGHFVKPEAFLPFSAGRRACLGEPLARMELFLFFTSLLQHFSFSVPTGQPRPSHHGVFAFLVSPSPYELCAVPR

[7] = biological target: T1, Estrogen receptor (Homo sapiens, UniProt P03372); conditions: sf9; further: in other assays of this panel Not Active means under 50% inhibition at 10 µM
T1 sequence (P03372 whole entry): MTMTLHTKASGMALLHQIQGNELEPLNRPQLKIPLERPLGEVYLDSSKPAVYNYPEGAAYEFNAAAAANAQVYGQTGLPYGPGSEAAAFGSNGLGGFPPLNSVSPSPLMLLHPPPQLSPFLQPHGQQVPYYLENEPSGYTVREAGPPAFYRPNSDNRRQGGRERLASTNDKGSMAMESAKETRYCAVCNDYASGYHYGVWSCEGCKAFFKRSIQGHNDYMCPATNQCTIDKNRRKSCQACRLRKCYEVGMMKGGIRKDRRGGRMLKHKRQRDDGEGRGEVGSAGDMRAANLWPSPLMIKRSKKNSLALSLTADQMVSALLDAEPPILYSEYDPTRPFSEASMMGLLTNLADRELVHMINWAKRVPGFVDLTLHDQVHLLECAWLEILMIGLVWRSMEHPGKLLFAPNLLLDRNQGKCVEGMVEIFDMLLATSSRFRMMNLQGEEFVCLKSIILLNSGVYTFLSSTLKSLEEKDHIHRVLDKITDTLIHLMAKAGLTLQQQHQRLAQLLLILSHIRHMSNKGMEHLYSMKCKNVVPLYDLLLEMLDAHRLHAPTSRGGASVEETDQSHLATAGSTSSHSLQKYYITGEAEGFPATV

[8] = DRUGMATRIX: GABAA, Muscimol, Central radioligand binding (ligand: [3H] Muscimol); type: cell membranes, Rattus norvegicus, Wistar, Brain, Membrane; conditions: Not Active = under 50% inhibition at 10 µM

TRANSPLATIN
Not Active: IC50 [1] | Ki [1] | IC50 [2] | Ki [2] | IC50 [3] | Ki [3] | IC50 [4] | Ki [4] | IC50 [5] | Ki [5] | IC50 [6] | Ki [6] | IC50 [7] | Ki [7] | IC50 [8] | Ki [8]

O=C(O)COc1ccc(C(=O)c2cccs2)c(Cl)c1Cl
Not Active: IC50 [1] | Ki [1] | IC50 [2] | Ki [2] | IC50 [3] | Ki [3] | IC50 [4] | Ki [4] | IC50 [5] | Ki [5] | IC50 [6] | Ki [6] | IC50 [7] | IC50 [8] | Ki [8]

ZIRCONIUM(IV) CHLORIDE
Not Active: IC50 [1] | Ki [1] | IC50 [2] | Ki [2] | IC50 [3] | Ki [3] | IC50 [4] | Ki [4] | IC50 [5] | Ki [5] | IC50 [6] | Ki [6] | IC50 [7] | Ki [7] | IC50 [8] | Ki [8]

Source: ChEMBL document CHEMBL1909046, “DrugMatrix in vitro pharmacology data”
